In patent publication US11571413B2, “Nicotinamide riboside treatments of domesticated meat animals” (Kansas State University Research Foundation, priority 2017, dated 2023):
Marks after values point to notes of the source that are not given here.

System: Fertilized broiler eggs (Cobb 500)
Assay: NR concentration on avian embryonic myogenesis, d 19 embryo morphometrics (Example II)
Assay type: in vivo, chicken
Conditions: 100 μl into yolk d 10, d 19 embryos
Description: Fertilized broiler eggs (n=60; Cobb 500) were randomly assigned to 1 of 4 treatments: 0.0, 250, 500, or 1,000 mM NR in sterile saline. At day 10 of incubation, 100 μl of treatment solution was injected into the egg yolk. Eggs were incubated at 37±3° C. and a relative humidity of 40±2%. At day 19 of incubation, embryos were euthanized by prolonged exposure to CO2 gas and decapitation. Measurements including: embryo weight; crown-rump length; chest circumference (CC); and left Pectoralis major (PM) weight, length, width, and depth were collected.

SMILES: NC(=O)c1ccc[n+]([C@@H]2O[C@H](CO)[C@@H](O)[C@H]2O)c1 [Nicotinamide riboside, nicotinamide riboside]
- Body weight (250 mM NR): 46.42 g
- Chest circumference (250 mM NR): 6.0^a,b cm
- Crown to rump length (250 mM NR): 83.69^a mm
- Head circumference (250 mM NR): 5.3^a cm
- Head length (250 mM NR): 17.70 mm
- Head width (250 mM NR): 15.42 mm
- Organ weight, heart (250 mM NR): 0.23 g
- Organ weight, liver (250 mM NR): 0.74 g
- Pectoralis major length (250 mM NR): 16.73^b mm
- Pectoralis major maximum thickness (250 mM NR): 2.56^b mm
- Pectoralis major weight (250 mM NR): 0.13^a,b g
- Pectoralis major width (250 mM NR): 4.90^a,b mm
- Body weight (500 mM NR): 46.25 g
- Chest circumference (500 mM NR): 6.3^b cm
- Crown to rump length (500 mM NR): 85.14^a mm
- Head circumference (500 mM NR): 5.6^b cm
- Head length (500 mM NR): 17.60 mm
- Head width (500 mM NR): 15.49 mm
- Organ weight, heart (500 mM NR): 0.23 g
- Organ weight, liver (500 mM NR): 0.72 g
- Pectoralis major length (500 mM NR): 17.51^b mm
- Pectoralis major maximum thickness (500 mM NR): 2.36^a,b mm
- Pectoralis major weight (500 mM NR): 0.16^b g
- Pectoralis major width (500 mM NR): 5.32^b mm
- Body weight (1,000 mM NR): 45.97 g
- Chest circumference (1,000 mM NR): 6.6^b cm
- Crown to rump length (1,000 mM NR): 88.20^b mm
- Head circumference (1,000 mM NR): 5.7^b cm
- Head length (1,000 mM NR): 17.98 mm
- Head width (1,000 mM NR): 15.69 mm
- Organ weight, heart (1,000 mM NR): 0.24 g
- Organ weight, liver (1,000 mM NR): 0.67 g
- Pectoralis major length (1,000 mM NR): 17.44^b mm
- Pectoralis major maximum thickness (1,000 mM NR): 2.64^b mm
- Pectoralis major weight (1,000 mM NR): 0.15^b g
- Pectoralis major width (1,000 mM NR): 5.61^b mm
